Tests used:
GAPDH mRNA [1] = test: GAPDH mRNA knockdown in differentiated Neuro-2a cells (RT-qPCR); assay type: cell-based; conditions: Neuro2a − CQ
Experimental: (§1) These GAPDH siRNA-peptide conjugates were then evaluated in HEK293 cells and the neuronal cell line, neuro2A.

GAPDH mRNA [2] = test: GAPDH mRNA knockdown in HEK293 cells overexpressing SORT-1 (RT-qPCR); assay type: cell-based; conditions: HEK293 + SORT1 − CQ
Experimental: as §1

Substance: Maleimide-(bAla)(Sar)(Sar)(Sar)(Sar)APRWDAPLRDPALRQ(B13)(G48) [Peptide 2-GAPDH6-thiol]
- GAPDH mRNA % knockdown compared to untreated cells (GAPDH mRNA [1]): 0%
- GAPDH mRNA % knockdown compared to untreated cells (GAPDH mRNA [2]): 40%

From patent US20260183411A1, “TARGETING SORTILIN” (priority 2024, published 2026)
